The values that follow come from the Kinase Knowledgebase extract (Sharma et al. 2016).

A value given as a limit tells only on which side of the number the result lay.

PIK3CG (human), sequence (P48736 whole entry, looked up): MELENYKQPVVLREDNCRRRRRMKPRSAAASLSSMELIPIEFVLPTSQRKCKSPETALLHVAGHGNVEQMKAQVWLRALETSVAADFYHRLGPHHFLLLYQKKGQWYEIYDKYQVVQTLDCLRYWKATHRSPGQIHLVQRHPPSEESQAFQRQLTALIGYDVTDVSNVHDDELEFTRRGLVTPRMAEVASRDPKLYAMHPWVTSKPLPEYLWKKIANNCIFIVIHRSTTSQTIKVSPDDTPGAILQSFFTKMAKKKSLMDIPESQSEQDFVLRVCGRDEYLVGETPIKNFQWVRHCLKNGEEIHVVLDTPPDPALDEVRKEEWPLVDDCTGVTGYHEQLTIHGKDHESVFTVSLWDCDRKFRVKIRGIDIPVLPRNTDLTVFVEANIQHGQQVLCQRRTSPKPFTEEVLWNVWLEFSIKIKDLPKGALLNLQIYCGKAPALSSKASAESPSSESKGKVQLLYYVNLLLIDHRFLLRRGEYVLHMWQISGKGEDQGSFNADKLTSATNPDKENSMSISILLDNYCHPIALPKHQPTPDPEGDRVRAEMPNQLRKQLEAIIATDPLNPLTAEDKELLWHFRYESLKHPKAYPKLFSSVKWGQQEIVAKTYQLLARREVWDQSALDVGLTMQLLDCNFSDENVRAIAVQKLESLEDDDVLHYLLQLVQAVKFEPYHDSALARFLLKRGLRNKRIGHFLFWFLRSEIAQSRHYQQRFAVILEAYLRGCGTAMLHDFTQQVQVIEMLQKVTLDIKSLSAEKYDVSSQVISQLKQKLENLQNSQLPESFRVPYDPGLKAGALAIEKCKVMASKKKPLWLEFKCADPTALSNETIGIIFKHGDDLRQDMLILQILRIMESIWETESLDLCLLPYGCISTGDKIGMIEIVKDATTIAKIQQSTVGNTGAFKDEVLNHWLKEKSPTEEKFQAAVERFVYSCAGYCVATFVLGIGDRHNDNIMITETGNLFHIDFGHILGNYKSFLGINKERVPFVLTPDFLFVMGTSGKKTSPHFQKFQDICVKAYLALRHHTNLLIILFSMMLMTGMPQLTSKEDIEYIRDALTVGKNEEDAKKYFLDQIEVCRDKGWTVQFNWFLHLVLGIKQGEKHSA

The experiment concerns the target PIK3CG (human) (UniProt P48736). Nature of the experiment: Assessment of PIK3CG Kinase Activity.
Usually Ki stands for a measure of affinity in units of concentration, obtained from inhibition or displacement. Lower therefore signals tighter binding. `CCCOCCNC(=O)Nc1nc(C)c(C#Cc2ccncc2)s1` came in with a Ki of less than 50 nM.
The same measure for `CCOC(=O)CCCC(=O)Nc1nc(C)c(C#Cc2ccncc2)s1`: 50 to 250 nM; for `Cc1nc(NC(=O)NCCc2cn(CC(F)(F)F)cn2)sc1C#Cc1ccccc1`: less than 50 nM; for `Cc1nc(NC(=O)NCCOCC2CC2)sc1C#Cc1ccc2nccn2c1`: less than 50 nM.
`Cc1nc(NC(=O)NCC(F)(F)F)sc1C#Cc1ccncc1` displayed an inhibition constant Ki of 50 to 250 nM.
The figure for `Cc1nc(NC(=O)NCCOCC2CC2)sc1C#Cc1cc(Cl)ncc1F` is less than 50 nM.
For the molecule `Cc1nc(NC(=O)COc2ccccc2)sc1C#Cc1ccncc1`, the Ki is 50 to 250 nM.
The same measure for `Cc1nc(NC(=O)NCCOCCN2CCOCC2)sc1C#Cc1ccncc1`: 50 to 250 nM.
The figure for `Cc1ccc(OCCNC(=O)Nc2nc(C)c(C#Cc3ccncc3)s2)cc1` is less than 50 nM; for `Cc1nc(NC(=O)NCC[S+](C)[O-])sc1C#Cc1ccncc1` (centres undefined) it is less than 50 nM.
`COCCNC(=O)Nc1nc(C)c(C#Cc2ccncc2)s1` returned an inhibitory constant (Ki) of less than 50 nM.
As to `CCOC(=O)CCNC(=O)Nc1nc(C)c(C#Cc2ccncc2)s1`, the Ki is less than 50 nM.
`Cc1cccc(NC(=O)CC(=O)Nc2nc(C)c(C#Cc3ccncc3)s2)c1`: the inhibitory constant (Ki) fell in the range of 50 to 250 nM.
The same measure for `CCn1cnc(CCNC(=O)Nc2nc(C)c(C#Cc3ccncc3)s2)c1`: less than 50 nM; for `Cc1nc(NC(=O)NCCn2cnc(C(F)(F)F)c2)sc1C#Cc1ccncc1`: 50 to 250 nM.
The same measure for `Cc1nc(NC(=O)NCCn2nnc3ccccc32)sc1C#Cc1ccncc1`: 50 to 250 nM; for `COC1CN(C(=O)Nc2nc(C)c(C#Cc3ccncc3)s2)C1`: less than 50 nM; for `Cc1nc(NC(=O)NCCOCC2CCCC2)sc1C#Cc1ccncc1`: less than 50 nM.
The same measure for `Cc1nc(NC(=O)NCCCOCC(F)(F)F)sc1C#Cc1ccncc1`: 50 to 250 nM; for `COc1ncc(C#Cc2sc(NC(=O)NCCOCC3CC3)nc2C)cn1`: less than 50 nM; for `COc1cncc(C#Cc2sc(NC(C)=O)nc2C)c1`: less than 50 nM.
In turn, `COc1ccc(CNC(=O)Nc2nc(C)c(C#Cc3ccncc3)s2)cc1` gave an inhibitory constant (Ki) of less than 50 nM.
The same measure for `CCC(O)CNC(=O)Nc1nc(C)c(C#Cc2cncc(OC)c2)s1` (centres undefined): less than 50 nM; for `Cc1nc(NC(=O)N2CCC(OCc3ccccc3)C2)sc1C#Cc1ccncc1` (centres undefined): 50 to 250 nM; for `Cc1nc(NC(=O)CCCC(=O)NCC(F)(F)F)sc1C#Cc1ccncc1`: 50 to 250 nM.
Molecule `COc1ccc(C#Cc2sc(NC(=O)NCCOCC3CC3)nc2C)cc1OC` registered an inhibitory constant (Ki) of less than 50 nM.
Turning to `Cc1nc(NC(=O)NCCOCC2CC2)sc1C#Cc1cncn1C`, the inhibition constant Ki lay within 50 to 250 nM.
For `Cc1nc(NC(=O)NCC2CCCCO2)sc1C#Cc1ccncc1` (centres undefined), the Ki is less than 50 nM.
The figure for `COc1ccc(C#Cc2sc(NC(C)=O)nc2C)cc1` is 50 to 250 nM.
The figure for `Cc1nc(NC(=O)NCCOCC2CC2)sc1C#Cc1ccn(C)c(=O)c1` is 50 to 250 nM.
`Cc1nc(NC(=O)COCc2ccccc2)sc1C#Cc1ccncc1` gave an inhibition constant (Ki) of 50 to 250 nM.
Take `Cc1nc(NC(=O)NCc2ccccn2)sc1C#Cc1ccncc1`: the inhibition constant (Ki) is less than 50 nM.
The same measure for `Cc1nc(NC(=O)NCCO)sc1C#Cc1ccncc1`: less than 50 nM.
`COc1cncc(C#Cc2sc(NC(=O)NC[C@H](C)O)nc2C)c1` registered a Ki of less than 50 nM.
In the case of `Cc1nc(NC(=O)NCCc2nccs2)sc1C#Cc1ccncc1`, the Ki lay in the range of 50 to 250 nM.
The figure for `Cc1nc(NC(=O)CNC(=O)c2ccccn2)sc1C#Cc1cccnc1` is less than 50 nM.
`Cc1nc(NC(=O)NCCOc2ccc(F)cc2)sc1C#Cc1ccncc1`: the Ki is less than 50 nM.
The same measure for `Cc1nc(NC(=O)NCCc2cn(CC(F)F)cn2)sc1C#Cc1ccccc1`: 50 to 250 nM; for `COc1cc(C#Cc2sc(NC(=O)NCCOCC3CC3)nc2C)cnc1OC`: less than 50 nM; for `COC(=O)c1ccn2cc(CCNC(=O)Nc3nc(C)c(C#Cc4ccncc4)s3)nc2c1`: 50 to 250 nM.
The same measure for `Cc1nc(NC(=O)CCC(=O)OC(C)(C)C)sc1C#Cc1ccncc1`: 50 to 250 nM.
The molecule `Cc1nc(NC(=O)NCCOCC2CC2)sc1C#Cc1cnc2ncccc2c1` had a Ki of less than 50 nM.
The same measure for `Cc1nc(NC(=O)NCCc2cn(C(C)C)cn2)sc1C#Cc1ccncc1`: less than 50 nM; for `Cc1nc(NC(=O)NCCOCC2CC2)sc1C#Cc1cccnc1`: less than 50 nM; for `Cc1nc(NC(=O)NCC#N)sc1C#Cc1ccncc1`: less than 50 nM.
The figure for `CC(=O)Nc1nc(C)c(C#Cc2ccccc2C)s1` is less than 50 nM; for `Cc1nc(NC(=O)NCCOCC2CC2)sc1C#Cc1cnc(Cl)c(F)c1` it is 50 to 250 nM.
The figure for `Cc1nc(NC(=O)NCCOc2cccc(F)c2)sc1C#Cc1ccncc1` is less than 50 nM.
In the case of `CCc1ccc(CCNC(=O)Nc2nc(C)c(C#Cc3ccncc3)s2)nc1`, the Ki is less than 50 nM.
In turn, `CCCn1cnc(CCNC(=O)Nc2nc(C)c(C#Cc3ccncc3)s2)c1` showed a Ki of less than 50 nM.
The molecule `Cc1nc(NC(=O)NCCC(=O)N(C)CC(F)(F)F)sc1C#Cc1ccccc1` showed an inhibition constant (Ki) of 50 to 250 nM.
In the case of `Cc1nc(NC(=O)NCCOc2cccnc2)sc1C#Cc1ccnc(Cl)c1`, the inhibition constant (Ki) lay within 50 to 250 nM.
In turn, `COc1cccc(C#Cc2sc(NC(C)=O)nc2C)c1` had a Ki of 50 to 250 nM.
The molecule `Cc1nc(NC(=O)NCCC(=O)NC(C)C)sc1C#Cc1ccncc1` had an inhibition constant Ki of less than 50 nM.
Take `Cc1nc(NC(=O)NCCc2cn(CCF)cn2)sc1C#Cc1ccncc1`: the inhibition constant (Ki) was less than 50 nM.
In turn, `Cc1nc(NC(=O)NCCOCC2CC2)sc1C#Cc1ccc2nccnc2c1` showed a Ki of less than 50 nM.
The same measure for `COc1cc(C#Cc2sc(NC(=O)NCCOCC3CC3)nc2C)cc(OC)c1`: 50 to 250 nM; for `Cc1nc(NC(=O)NCCC#N)sc1C#Cc1ccncc1`: less than 50 nM.
The figure for `CC(=O)Nc1nc(C)c(C#Cc2cccnc2)s1` is 50 to 250 nM; for `CCOC(=O)CCCNC(=O)Nc1nc(C)c(C#Cc2ccncc2)s1` it is less than 50 nM; for `COc1cc(C#Cc2sc(NC(=O)NCCn3cnc(C(F)(F)F)c3)nc2C)cnc1OC` it is less than 50 nM.
The same measure for `CCc1ccc(CNC(=O)Nc2nc(C)c(C#Cc3ccncc3)s2)nc1`: less than 50 nM; for `Cc1nc(NC(=O)NCCOCC2CC2)sc1C#Cc1cncc(C(F)(F)F)c1`: 50 to 250 nM.
`Cc1nc(NC(=O)NCCOc2ccccc2)sc1C#Cc1ccncc1` had a Ki of less than 50 nM.
The molecule `CC(=O)Nc1nc(C)c(C#Cc2ccc(N)cc2)s1` showed a Ki of 50 to 250 nM.
`Cc1nc(NC(=O)NC[C@H](C)OCC2CC2)sc1C#Cc1cncc(F)c1` displayed an inhibition constant Ki of less than 50 nM.
`CCc1ccc(OCCNC(=O)Nc2nc(C)c(C#Cc3ccncc3)s2)cc1` came in with a Ki of 50 to 250 nM.
With `COc1ccc(C#Cc2sc(NC(=O)NC[C@H](C)OCC3CC3)nc2C)cn1`, the Ki is less than 50 nM.
The same measure for `COc1cc(C#Cc2sc(NC(=O)NC[C@H](C)OCC3CC3)nc2C)cnc1OC`: less than 50 nM; for `Cc1nc(NC(=O)NCCc2ccccn2)sc1C#Cc1ccncc1`: less than 50 nM; for `CC(=O)Nc1nc(C)c(C#Cc2cncc(C(F)(F)F)c2)s1`: 50 to 250 nM.
The figure for `Cc1nc(NC(=O)NCCOC(=O)c2ccccc2)sc1C#Cc1ccncc1` is less than 50 nM; for `CC(=O)Nc1nc(C)c(C#Cc2cccc(F)c2)s1` it is 50 to 250 nM; for `CC(=O)Nc1nc(C)c(C#Cc2ccccc2)s1` it is 50 to 250 nM.
The figure for `CCOC(=O)N1CCC(OC(=O)Nc2nc(C)c(C#Cc3ccncc3)s2)CC1` is 50 to 250 nM; for `Cc1nc(NC(=O)NCCc2cn(CC(F)F)cn2)sc1C#Cc1cccnc1` it is less than 50 nM; for `Cc1nc(NC(=O)NCCC(=O)NCC(F)(F)F)sc1C#Cc1ccccc1` it is 50 to 250 nM.
In the case of `Cc1nc(NC(=O)NCCc2cccnc2)sc1C#Cc1ccncc1`, the Ki is less than 50 nM.
Consider `Cc1nc(NC(=O)NCCC(=O)NCC(F)(F)F)sc1C#Cc1ccncc1`, for which the Ki is less than 50 nM.
The same measure for `CCCO[C@@H](C)CNC(=O)Nc1nc(C)c(C#Cc2ccncc2)s1`: less than 50 nM; for `CCc1cnc(CCNC(=O)Nc2nc(C)c(C#Cc3cncc(OC)c3)s2)s1`: less than 50 nM; for `CC(=O)Nc1nc(C)c(C#Cc2ccc(Cl)nc2)s1`: 50 to 250 nM.
Take `Cc1nc(NC(=O)NCCOCC(F)(F)F)sc1C#Cc1ccncc1`: the Ki is 50 to 250 nM.
The same measure for `Cc1nc(NC(=O)NCCOCC2CC2)sc1C#Cc1ccc(Cl)nc1`: 50 to 250 nM; for `Cc1nc(NC(=O)NCCOCC2CC2)sc1C#Cc1ccnn1C`: 50 to 250 nM.
As for `COc1cc(C#Cc2sc(NC(=O)NCCOCC3CC3)nc2C)cnc1Cl`, the Ki lay within 50 to 250 nM.
Turning to `COc1cncc(C#Cc2sc(NC(=O)NC[C@H](C)OCC3CC3)nc2C)c1`, the Ki is less than 50 nM.
Take `COc1ccc(OCCNC(=O)Nc2nc(C)c(C#Cc3ccncc3)s2)cc1`: the Ki was less than 50 nM.
The same measure for `CCOCCNC(=O)Nc1nc(C)c(C#Cc2ccccc2)s1`: less than 50 nM.
In turn, `CC(=O)Nc1nc(C)c(C#Cc2cccc(N)c2)s1` showed an inhibition constant Ki of 50 to 250 nM.
In the case of `CC(=O)NCC(=O)Nc1nc(C)c(C#Cc2ccncc2)s1`, the inhibition constant (Ki) is less than 50 nM.
The same measure for `Cc1cccc(OCCNC(=O)Nc2nc(C)c(C#Cc3ccncc3)s2)c1`: less than 50 nM; for `Cc1nc(NC(=O)NCCc2ncn(CC(F)F)c2Cl)sc1C#Cc1ccncc1`: less than 50 nM.
The same measure for `CCc1cnn(CCNC(=O)Nc2nc(C)c(C#Cc3ccncc3)s2)c1`: less than 50 nM; for `Cc1nc(NC(=O)NCCc2cn(CC(F)F)cn2)sc1C#Cc1ccccc1Cl`: 50 to 250 nM; for `Cc1nc(NC(=O)CCNC(=O)c2ccccn2)sc1C#Cc1cccnc1`: less than 50 nM.
The same measure for `Cc1nc(NC(=O)NCCC(=O)c2ccccc2)sc1C#Cc1ccncc1`: less than 50 nM; for `COc1ccc(C#Cc2sc(NC(=O)NCCOCC3CC3)nc2C)cn1`: 50 to 250 nM; for `Cc1nc(NC(=O)NCCC(=O)OC(C)(C)C)sc1C#Cc1ccccc1`: less than 50 nM.
In the case of `Cc1nc(NC(=O)NCC2CCCO2)sc1C#Cc1ccncc1` (centres undefined), the Ki was less than 50 nM.
The same measure for `Cc1nc(NC(=O)NCCn2cc(Cl)cn2)sc1C#Cc1ccncc1`: less than 50 nM.
`COc1cc(C#Cc2sc(NC(=O)NCCOc3cccnc3)nc2C)cnc1OC` showed an inhibitory constant (Ki) of less than 50 nM.
The figure for `Cc1nc(NC(=O)NCCOCC2CC2)sc1C#Cc1cccnc1Cl` is less than 50 nM.
The same measure for `Cc1nc(NC(=O)CCCc2cc[nH]c2)sc1C#Cc1ccncc1`: 50 to 250 nM.
